Experimental data: paper PMC9551036, “A selective and orally bioavailable VHL-recruiting PROTAC achieves SMARCA2 degradation in vivo” (Nature Communications, 2022)
“And” between values parts separate entries of the source, which are not always exact repeats. Equal entries are not always repeated. Where two headings read alike, the source gives them in different places.

Assays:
[1] = tested on: NCI-H1568 cells; test: Cell viability assay (CellTiter Glo) in NCI-H1568; assay type: cell-based, human; settings: for EC50: read-out: EC50 cell proliferation (CellTiter Glo); for IC50: CellTiter Glo, individual replicates, read-out: NCI-H1568 (18h) CTG
Procedure: 500–2000 cells were seeded in white, clear bottom 96-well plates (Corning or Perkin Elmer) in 180–200 µl medium per well. The next day, compounds were added using a digital dispenser and a T0 sample was measured for reference. […], and viability (luminescence) was measured using CellTiter Glo or CellTiter Glo 2.0 (Promega) according to manufacturer’s instructions after equilibrating cells and reagents at room temperature and 10–20 min incubation time while shaking.

[2] = target: T1, SMARCA4 (Homo sapiens, UniProt P51532); test: Imaging-based SMARCA4 protein assay in RKO cells; assay type: cell-based; parameters: endogenous in cells; host or cells: RKO, HCT116, LU99, HCC-364, HCT-15, HCC4006, SK-N-AS; settings: individual replicates
T1 sequence (P51532 whole entry): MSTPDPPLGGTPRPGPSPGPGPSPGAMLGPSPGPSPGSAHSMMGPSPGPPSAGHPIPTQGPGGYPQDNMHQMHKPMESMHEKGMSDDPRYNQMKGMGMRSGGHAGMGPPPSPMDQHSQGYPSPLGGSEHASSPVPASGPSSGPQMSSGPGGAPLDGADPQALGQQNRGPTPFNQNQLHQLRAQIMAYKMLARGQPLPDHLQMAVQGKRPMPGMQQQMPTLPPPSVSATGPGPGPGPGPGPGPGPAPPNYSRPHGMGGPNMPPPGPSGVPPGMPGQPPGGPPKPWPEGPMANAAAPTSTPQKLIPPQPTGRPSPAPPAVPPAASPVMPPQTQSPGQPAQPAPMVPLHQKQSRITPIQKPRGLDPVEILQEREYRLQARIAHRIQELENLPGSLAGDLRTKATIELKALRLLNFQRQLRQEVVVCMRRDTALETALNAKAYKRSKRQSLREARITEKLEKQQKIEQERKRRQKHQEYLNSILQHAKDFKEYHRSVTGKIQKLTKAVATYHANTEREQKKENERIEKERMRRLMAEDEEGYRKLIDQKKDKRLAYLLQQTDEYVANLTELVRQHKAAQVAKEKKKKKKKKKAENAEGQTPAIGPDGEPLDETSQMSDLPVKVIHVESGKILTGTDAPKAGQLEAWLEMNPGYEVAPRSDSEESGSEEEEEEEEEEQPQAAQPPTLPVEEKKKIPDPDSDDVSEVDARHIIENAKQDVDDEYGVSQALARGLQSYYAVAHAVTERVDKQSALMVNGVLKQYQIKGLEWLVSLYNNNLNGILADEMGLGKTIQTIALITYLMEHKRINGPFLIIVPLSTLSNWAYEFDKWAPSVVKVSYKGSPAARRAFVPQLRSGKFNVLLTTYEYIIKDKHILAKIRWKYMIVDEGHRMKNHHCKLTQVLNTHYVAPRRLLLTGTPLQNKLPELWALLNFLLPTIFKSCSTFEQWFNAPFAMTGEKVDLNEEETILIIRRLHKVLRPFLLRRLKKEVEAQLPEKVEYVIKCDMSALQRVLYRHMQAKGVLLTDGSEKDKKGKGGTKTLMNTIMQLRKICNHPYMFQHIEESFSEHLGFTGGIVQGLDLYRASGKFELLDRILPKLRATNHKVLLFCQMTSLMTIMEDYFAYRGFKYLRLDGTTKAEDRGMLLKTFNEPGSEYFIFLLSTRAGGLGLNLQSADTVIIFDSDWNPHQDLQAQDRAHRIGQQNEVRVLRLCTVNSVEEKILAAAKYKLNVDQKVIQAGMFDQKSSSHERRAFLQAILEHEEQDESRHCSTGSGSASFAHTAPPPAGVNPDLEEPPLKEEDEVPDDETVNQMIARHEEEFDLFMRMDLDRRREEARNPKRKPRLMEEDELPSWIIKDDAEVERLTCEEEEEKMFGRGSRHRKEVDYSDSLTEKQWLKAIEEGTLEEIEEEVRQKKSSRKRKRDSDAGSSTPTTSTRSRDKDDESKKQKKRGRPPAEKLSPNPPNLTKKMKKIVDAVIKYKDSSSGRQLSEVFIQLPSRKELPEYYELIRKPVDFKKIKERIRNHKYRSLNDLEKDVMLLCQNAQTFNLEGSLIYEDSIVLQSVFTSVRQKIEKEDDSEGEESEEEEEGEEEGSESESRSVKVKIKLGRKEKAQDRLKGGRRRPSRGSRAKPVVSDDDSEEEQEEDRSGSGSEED
Procedure: 1250 cells per well in 60 µl medium were plated in flat bottom, poly-lysin coated 384-well plates (CellCarrier Ultra, Perkin Elmer). The next day, test compounds (10 µl of serial dilutions) and DMSO controls were diluted in DMEM medium such that the final DMSO content was <1% or were added using an ultrasound dispensing system. 4 wells were reserved for a background measurement. […] After aspirating the fixing solution, the cells were washed once with 25 µl PBS. 25 µl of blocking buffer (10% goat serum in PBS) was added and cells were incubated for 30 min, then washed once with PBS. Cells were stained with 20 µl of SMARCA2/4 primary antibody solution (Sigma #HPA029981 RRID:AB_10602406 1:1000 or Cell Signalling #52251 clone E9O6 RRID:AB_2799410 1:1000 in PBS with 10% FCS) for 2–4 h at room temperature. Cells were again washed once with PBS. […] The cell layer was then washed once with 25 µl PBS, the wells were filled with 25 µl PBS and the plates were sealed with an adhesive sheet. They were then imaged on the Opera Phoenix (mean intensity in the nucleus). Results were computed as percent of controls ((value of test compound − background)/(value of the negative control DMSO—background) multiplied by 100). EC50 values were computed using a 4-parametric logistic model.

[3] = target: T2, PBRM1BD5 (Homo sapiens, UniProt Q86U86); test: TR-FRET ternary complex affinity and cooperativity, PBRM1; assay type: binding; settings: TR-FRET competition for PBRM1BD5, without VCB; mean ± SD; read-out: TR-FRET PBRM1BD EC50
T2 construct: GST (TEV site) (N); His6 (TEV site) (N, cleaved yes); made in house; host or cells: PBRM1^BD5: Escherichia coli BL21(DE3)
T2 sequence (Q86U86 645-766): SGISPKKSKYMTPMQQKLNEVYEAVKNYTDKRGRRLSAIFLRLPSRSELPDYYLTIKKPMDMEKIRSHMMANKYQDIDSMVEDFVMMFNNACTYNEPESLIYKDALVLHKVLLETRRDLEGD

[4] = target: T1, SMARCA4; test: SMARCA4 capillary electrophoresis protein assay in RKO cells; assay type: cell-based; parameters: endogenous in cells; host or cells: RKO, HCT116, LU99, HCC-364, HCT-15, HCC4006, SK-N-AS; settings: mean ± SD; for Dmax: RKO
Procedure: 130,000–200,000 cells were seeded in 24-well plates and incubated until settled down or overnight. Compounds were dissolved in DMSO and added to cells in indicated concentrations using a digital dispenser following an optional media change. Cells were incubated for 4 or 18 h as indicated. For SMARCA2/4 half-life determination, 150,000 or 200,000 cells were seeded in 24-well plates. The next day, 50 µg/ml cycloheximide (Sigma) was added and cells were incubated for 1–24 h. For SMARCA2/4 re-synthesis measurements, 200,000 cells were seeded in 24-well plates. The next day, 100 nM compound 6 was added for 4 h to degrade SMARCA2/4, and a sample was taken as baseline for normalisation. To allow re-synthesis, a VHL binder (compound 32, 25 or 50 µM) was then added for 3 or 24 h. Medium was removed, cells were washed with PBS and lysed with 80 µl Lysis Buffer (MSD Tris Lysis Buffer (#R60TX-2) + Halt Inhibitor Cocktail (100x) + Benzonase 0.5 µL/ml). Samples were frozen at −80 °C and thawed at room temperature before use. Samples were transferred to a V-bottom plate and insoluble debris was pelleted by centrifugation for 5 min at maximum speed. The supernatant was transferred to a fresh plate. Master Mix and Ladder were prepared according to manufacturer’s instructions for 12–230 kDa Wes Separation Module, 8 × 25 capillary cartridges, Protein Simple #SM-W004 with Anti-Rabbit Detection Module for Wes, Peggy Sue or Sally Sue, Protein Simple #DM-001. 4.8 µl lysate were mixed with 1.2 µl Master Mix to achieve a protein concentration of ~0.5 µg/µl. Antibodies were diluted in Antibody Diluent II (SMARCA2 Sigma #HPA029981 RRID:AB_10602406 1:25–100, SMARCA4 Cell Signalling #49360 clone D1Q7F RRID:AB_2728743 1:15–120 or Abcam #ab110641 clone EPNCIR111A RRID:AB_10861578 1:60, GAPDH Abcam #ab9485 RRID:AB_307275 1:250). Wes plates were prepared and run according to manufacturer’s instructions. Proteins were quantified with accompanying Compass Software. SMARCA2/4 protein levels were normalised to GAPDH. […] Where applicable, curves were fitted using a 4-parametric logistic model.

[5] = 4h, read-out: RKO (4h) SMARCA4 DC50
[6] = 18h, read-out: RKO (18h) SMARCA4 DC50

With `Cc1ncsc1-c1ccc([C@H](CC[C@@H](C)CCN2CCC(c3ccc4c(c3)n(C3CCCC3)c3nc(=O)c5c(Br)cccc5n43)CC2)NC(=O)[C@@H]2C[C@@H](O)CN2C(=O)[C@@H](NC(=O)C2(F)CC2)C(C)(C)C)cc1` [compound 29] the EC50 ([1]; NCI-H1568 ([…]), mean ± SD) was 5 ± 2 nM, the IC50 ([1]; NCI-H1568, (18h)) was 4.01 nM and 5.99 nM and 2.49 nM and 8.59 nM and 7.01 nM and the DC50 [2, 5] was 11.1 nM and 13.5 nM and 12.4 nM and 24.9 nM. For the same compound, the DC50 [2, 6] was 6.86 nM and 10.4 nM (2×) and 14.2 nM and 15.3 nM and 14 nM, the EC50 [3] was 85 ± 25 nM and the DC50 ([4]; RKO (4 h)) was 15 ± 6 nM. For the same compound, the “SMARCA4 Dmax” value ([4]; RKO (4 h)) was 68 ± 6%, the DC50 ([4]; RKO (18 h)) was 11 ± 3 nM and the “SMARCA4 Dmax” value ([4]; RKO (18 h)) was 87 ± 6%.

For `Cc1ncsc1-c1ccc([C@H](COC(C)CN2CCC(c3ccc4c(c3)n(C3CCCC3)c3nc(=O)c5c(Br)cccc5n43)CC2)NC(=O)[C@@H]2C[C@@H](O)CN2C(=O)[C@@H](NC(=O)C2(N(C)C)CC2)C(C)(C)C)cc1` (stereo partly drawn) [compound 10], the EC50 ([1]; Homo sapiens, NCI-H1568, […]) was 16 ± 7 nM, the IC50 ([1]; NCI-H1568, (18h)) was 21.5 nM and 20 nM and 8.75 nM and the DC50 [2, 5] was > 25000 nM. The DC50 [2, 6] was 103 nM and 218 nM and 235 nM, the EC50 [3] was 31 ± 1 nM and the DC50 ([4]; RKO (4 h)) was 83 ± 22 nM. It also gave a DC50 ([4]; RKO (18 h)) of 174 ± 72 nM, a Dmax ([4]; RKO (4 h)) of 34 ± 6% and a Dmax ([4]; RKO (18 h)) of 68 ± 15%.

In the case of `Cc1ncsc1-c1ccc([C@H](CCCCN2CCC(c3ccc4c(c3)n(C3CCCC3)c3nc(=O)c5c(Br)cccc5n43)CC2)NC(=O)[C@@H]2C[C@@H](O)CN2C(=O)[C@@H](NC(=O)C2(F)CC2)C(C)(C)C)cc1` [compound 25], the EC50 ([1]; NCI-H1568 ([…]), mean ± SD) is reported as 7 ± 4 nM, the IC50 ([1]; NCI-H1568, (18h)) is reported as 11.9 nM and 5.25 nM and 6.51 nM and the DC50 [2, 6] is reported as 31.7 nM and 60 nM and 33.5 nM. The EC50 [3] was 36 ± 12 nM, the DC50 ([4]; RKO (18 h)) was 40 ± 16 nM and the “SMARCA4 Dmax” value ([4]; RKO (18 h)) was 52 ± 21%.

`Nc1cccc2c1c(=O)nc1n(C3CCCC3)c3ccccc3n21` [compound 2] was tested, and the IC50 ([1]; Homo sapiens, NCI-H1568, 18 h) was > 10000 nM, the EC50 ([1]; Homo sapiens, NCI-H1568, […]) was > 10000 nM and the DC50 [2, 5] was 2.7 µM and > 25 µM (2×). The DC50 [2, 6] was > 25000 nM, the EC50 [3] was 1000 nM and the DC50 ([4]; RKO (4 h)) was > 25000 nM. The DC50 ([4]; RKO (18 h)) was > 25000 nM.

For `O=c1nc2n(C3CCCC3)c3ccccc3n2c2cccc(Br)c12` [compound 1], the EC50 ([1]; Homo sapiens, NCI-H1568, […]) was 1100 nM, the DC50 [2, 5] was > 25000 nM and the DC50 [2, 6] was > 25000 nM. The EC50 [3] was 134 ± 28 nM, the DC50 ([4]; RKO (4 h)) was > 25000 nM and the DC50 ([4]; RKO (18 h)) was > 25000 nM.

In the case of `CN1CCN(c2nc(=O)c3ccccc3o2)CC1` [compound 14], the EC50 ([1]; NCI-H1568 ([…]), mean ± SD) is reported as > 10000 nM, the IC50 ([1]; NCI-H1568, (18h)) is reported as > 10000 nM and the DC50 [2, 5] is reported as > 25000 nM. For the same compound, the DC50 [2, 6] was > 25000 nM, the EC50 [3] was > 10000 nM and the DC50 ([4]; RKO (4 h)) was > 25000 nM. The DC50 ([4]; RKO (18 h)) was > 25000 nM.

With `CN1CCN(c2nc(=O)c3c(I)cccc3o2)CC1` [compound 16] the EC50 ([1]; NCI-H1568 ([…]), mean ± SD) was > 10000 nM, the IC50 ([1]; NCI-H1568, (18h)) was > 10000 nM and the DC50 [2, 5] was > 25000 nM. For the same compound, the DC50 [2, 6] was > 25000 nM, the EC50 [3] was > 10000 nM and the DC50 ([4]; RKO (4 h)) was > 25000 nM. For the same compound, the DC50 ([4]; RKO (18 h)) was > 25000 nM.

In the case of `Cc1ncsc1-c1ccc([C@H](CCCCCN2CCC(c3ccc4c(c3)n(C3CCCC3)c3nc(=O)c5c(Br)cccc5n43)CC2)NC(=O)[C@@H]2C[C@@H](O)CN2C(=O)[C@@H](NC(=O)C2(F)CC2)C(C)(C)C)cc1` [compound 11], the EC50 ([1]; Homo sapiens, NCI-H1568, […]) is reported as 7 ± 3 nM, the IC50 ([1]; NCI-H1568, (18h)) is reported as 8.72 nM and 10.4 nM and 5.64 nM and 9.09 nM and 2.95 nM and 6.31 nM and the DC50 [2, 5] is reported as 20 nM and 10.1 nM and 26.4 nM and 8.2 nM. For the same compound, the DC50 [2, 6] was 9.56 nM and 14.6 nM and 11.5 nM and 9.12 nM and 15.1 nM, the EC50 [3] was 41 ± 8 nM and the DC50 ([4]; RKO (4 h)) was 15 ± 9 nM. It also gave a DC50 ([4]; RKO (18 h)) of 12 ± 3 nM, a Dmax ([4]; RKO (4 h)) of 53 ± 16% and a Dmax ([4]; RKO (18 h)) of 78 ± 11%.
